Bounds are passed on as bounds.

The assay concerns the target T1, Neuropeptide Y receptor type 5 (Homo sapiens, UniProt Q15761).
T1 sequence (Q15761 whole entry): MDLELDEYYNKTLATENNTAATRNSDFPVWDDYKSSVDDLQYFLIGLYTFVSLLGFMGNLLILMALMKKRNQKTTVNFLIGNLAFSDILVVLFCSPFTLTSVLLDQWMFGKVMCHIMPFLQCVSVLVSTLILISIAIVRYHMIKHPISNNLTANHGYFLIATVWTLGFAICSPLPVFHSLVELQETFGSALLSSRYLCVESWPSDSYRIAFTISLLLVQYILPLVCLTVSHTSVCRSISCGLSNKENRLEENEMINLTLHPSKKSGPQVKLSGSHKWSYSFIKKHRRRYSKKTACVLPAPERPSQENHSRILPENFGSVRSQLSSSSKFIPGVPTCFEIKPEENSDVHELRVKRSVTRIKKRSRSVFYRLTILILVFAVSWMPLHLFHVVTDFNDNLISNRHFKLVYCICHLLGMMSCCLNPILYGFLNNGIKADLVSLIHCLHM
Briefly: Displacement of [125I]PYY from human recombinant neuropeptide Y5 receptor expressed in thymidine kinase deficient […] cells. For orientation: Loss of bound radioactivity is the signal in a displacement assay; it reports binding, not function.

As a reminder, the Ki is the equilibrium dissociation constant of an inhibitor or competing ligand from its target. Take `COc1cccc2c1C(C1C(=O)CC(C)(C)CC1=O)C1=C(CC(C)(C)CC1=O)O2` (stereo unspecified) [9-(2-Hydroxy-4,4-dimethyl-6-oxocyclohexyl)-8-methoxy-3,3-dimethyl-2,3,4,9-tetrahydro-1H-xanthen-1-one]: the Ki was more than 1000 nM.

For the origin of these results see BindingDB's records for doi:10.1021/jm8003587 (Tsukuba Research Institute, 2008).
